Here are results for 17 compounds from patent US6359156B1, “Oxime amides and hydrazone amides having fungicidal activity” (Monsanto Technology LLC, priority 1999, dated 2002).

Like-named read-outs stand apart in the source and are kept apart here.

Assay [1] relates to Ggt. Put plainly: In vitro assay: inhibition of mycelial growth of Ggt on minimal media agar. Format: cell-based, Gaeumannomyces graminis var. tritici. The settings on record: Gaeumannomyces graminis, read-out: % Control of Ggt In Vitro. The procedure: The test compounds (0.25 mL of an appropriate stock solution in acetone) were incorporated into 25 mL minimal media agar [prepared by autoclaving a solution of 17.5 g Czapek Dox broth (Difco), 7.5 g purified agar or Bacto-agar (Difco), and 500 mL distilled/deionized water, and then adding 50 μL of 1 mg/mL thiamine hydrochloride and 50 μL of 1 mg/mL biotin in 5% ethanol] and plates were prepared.
Each plate was inoculated by placing in a triangular shape three 4 mm plugs of Ggt grown on the minimal media agar described above. The plates were incubated in the dark at 19-20° C. for 4-5 days. The growth of the fungus was measured as the diameter of the mycelial growth and the result expressed as Percent Inhibition, calculated as [1−[(mm growth on treated plate−4)/(mm growth on control plate−4)]]×100.

In assay [2] the test system is Ggt. Briefly: 4 Week In Vivo Seed Treatment Assay on "Bergen" wheat in soil infested with Ggt. More on the design: species or system Gaeumannomyces graminis var. tritici. The procedure: The test compounds were tested for control of Ggt on “Bergen” varieties of wheat grown in 3 inch square pots containing soil (equal to thirds of Metro-mix, sand, and silt-loam filed soil, all steam sterilized). Seeds were treated with a solution of a test compound in acetone. Using a 10,000 ppm stock for each compound, the following serial dilutions were prepared.
When 1 mL of the stock and dilutions was applied to 10 gm of seed, the resultant application rates were 100 and 25 g of active ingredient per 100 kg of seed.
A treatment jar was rinsed 2 times with 3 mL of acetone. The 1 mL of the solution was swirled to cover the base of the jar. 10 gm of seed was added to the jar and capped, after which the jar was swirled and shaken until the seeds got a rapid and even coverage. After about 30-50 seconds, the lid was removed while the shaking was continued. After 1 minute, the jar was set aside to dry. When dry, the seed was poured into an envelope for storage until planting.
Compounds were tested for control of Ggt on “Bergen” varieties of wheat grown in 3 inch square pots containing soil infested with Ggt. The infestation was accomplished by mixing the soil with an inoculum prepared by growing Ggt on infested sterile oats (400 cc whole oats, 350 mL deionized water, autoclaved). After a one month incubation period at room temperature, the oats were dried and mixed with the soil at 4% v/v.
The roots were harvested, washed, and rated after 4 weeks. Each treatment was assigned a percent (%) diseased root area value using 1, 5, 10, 20, 30, 40, 50, 60, 80, or 100% ratings. Each pot of plants got a single rating.

[3] abbreviates: 0.1 ppm in agar, 4-5 days at 19-20° C.
Setting [4] is: 1 ppm in agar, 4-5 days at 19-20° C.
Where [5] appears, read: 10 ppm in agar, 4-5 days at 19-20° C.
Where [6] appears, read: 0.01 ppm in agar, 4-5 days at 19-20° C.
Where [7] appears, read: 25 g ai/100 kg seed, roots rated after 4 weeks.
Setting [8] is: 100 g ai/100 kg seed, roots rated after 4 weeks.

With `CCCNC(=O)/C(=N/OC(C)(C)C)c1ccccc1` [Example 2], the inhibition of growth at 0.1 ppm in the assay on Ggt [1] (setting [3]) worked out at 27%. Moreover, in the assay with Ggt [1] (setting [4]), the inhibition of growth at 1 ppm was determined as 0%. In addition, in the assay on Ggt [1] (setting [5]), the inhibition of growth at 10 ppm was 0%.
As for `CCCNC(=O)C(=NOC(C)(C)C)c1ccccc1F` [Example 11], the inhibition of growth at 0.1 ppm in the assay with Ggt [1] (setting [3]) worked out at 0%. The inhibition of growth at 1 ppm in the assay on Ggt [1] (setting [4]) worked out at 43%. Moreover, the inhibition of growth at 10 ppm in the assay with Ggt [1] (setting [5]) was found to be 77%.
For the compound `CCCNC(=O)/C(=N\OC(C)(C)C)c1ccccc1` [Example 1], the inhibition of growth at 0.01 ppm in the assay on Ggt [1] (setting [6]) came out at 4%. The inhibition of growth at 0.1 ppm with Ggt [1] (setting [3]) stood at 96%. For the same compound, the inhibition of growth at 1 ppm with Ggt [1] (setting [4]) was found to be 100%. The inhibition of growth at 10 ppm with Ggt [1] (setting [5]) turned out to be 100%. In addition, the “% Control of Ggt In Vivo” value is reported as 71% in the assay on Ggt [2] (setting [7]) and 79% in the assay on Ggt [2] (setting [8]).
With `CCCNC(=O)/C(=N\OC(C)(C)C)c1cccs1` [Example 14], the inhibition of growth at 0.1 ppm in the assay on Ggt [1] (setting [3]) was 96%. In the assay with Ggt [1] (setting [4]), the inhibition of growth at 1 ppm came out at 100%. For the same compound, the inhibition of growth at 10 ppm in the assay on Ggt [1] (setting [5]) came to 100%.
For the compound `C=CCNC(=O)C(=NNC(C)(C)C)c1ccccc1` [Example 13], in the assay on Ggt [1] (setting [3]), the inhibition of growth at 0.1 ppm was determined as 25%. Moreover, the inhibition of growth at 1 ppm with Ggt [1] (setting [4]) stood at 96%. Moreover, in the assay with Ggt [1] (setting [5]), the inhibition of growth at 10 ppm worked out at 96%.
As for `CCCNC(=O)C(=NOC(C)(C)C)c1cccc(C)c1` [Example 10], the inhibition of growth at 0.1 ppm in the assay with Ggt [1] (setting [3]) was 5%. For the same compound, the inhibition of growth at 1 ppm with Ggt [1] (setting [4]) turned out to be 32%. The inhibition of growth at 10 ppm in the assay with Ggt [1] (setting [5]) came out at 80%.
As to `CCCNC(=O)/C(=N/OC(C)(CC)CC)c1ccccc1` [Example 8], in the assay on Ggt [1] (setting [3]), the inhibition of growth at 0.1 ppm was determined as 2%. Further, the inhibition of growth at 1 ppm with Ggt [1] (setting [4]) is 80%. Also, the inhibition of growth at 10 ppm in the assay on Ggt [1] (setting [5]) was determined as 98%.
Consider `CCCNC(=O)/C(=N\OC(C)(C)CC)c1ccccc1` [Example 5], for which the inhibition of growth at 0.01 ppm in the assay on Ggt [1] (setting [6]) came out at 59%. For the same compound, the inhibition of growth at 0.1 ppm in the assay with Ggt [1] (setting [3]) worked out at 100%. Moreover, in the assay on Ggt [1] (setting [4]), the inhibition of growth at 1 ppm amounted to 100%. In addition, the inhibition of growth at 10 ppm in the assay on Ggt [1] (setting [5]) came to 100%.
`CCCNC(=O)C(=NOC(C)(C)C)c1ccc(C)cc1` [Example 9]: in the assay with Ggt [1] (setting [3]), the inhibition of growth at 0.1 ppm was determined as 7%. Also, the inhibition of growth at 1 ppm in the assay with Ggt [1] (setting [4]) amounted to 37%. For the same compound, the inhibition of growth at 10 ppm with Ggt [1] (setting [5]) worked out at 80%.
The corresponding values for `CCCNC(=O)/C(=N/OC(C)(C)C)c1cccs1` [Example 15] are 10%, 20% and 94%.
`CCCNC(=O)/C(=N/NC(C)(C)C)c1ccccc1` [Example 4]: the inhibition of growth at 0.1 ppm in the assay with Ggt [1] (setting [3]) came out at 0%. For the same compound, in the assay with Ggt [1] (setting [4]), the inhibition of growth at 1 ppm was 0%. In the assay with Ggt [1] (setting [5]), the inhibition of growth at 10 ppm stood at 43%.
As for `CCCNC(=O)/C(=N\OC(C)(CC)CC)c1ccccc1` [Example 7], the inhibition of growth at 0.01 ppm in the assay on Ggt [1] (setting [6]) came to 16%. Besides, the inhibition of growth at 0.1 ppm in the assay on Ggt [1] (setting [3]) is 98%. In the assay with Ggt [1] (setting [4]), the inhibition of growth at 1 ppm worked out at 100%. In addition, the inhibition of growth at 10 ppm with Ggt [1] (setting [5]) is 100%.
For the compound `CCCNC(=O)/C(=N/OC(C)(C)CC)c1ccccc1` [Example 6], in the assay with Ggt [1] (setting [3]), the inhibition of growth at 0.1 ppm was determined as 2%. In addition, the inhibition of growth at 1 ppm with Ggt [1] (setting [4]) was determined as 2%. The inhibition of growth at 10 ppm in the assay on Ggt [1] (setting [5]) was found to be 20%.
As for `C=CCNC(=O)C(=NOC(C)(C)C)c1ccccc1` [Example 12], the inhibition of growth at 0.1 ppm with Ggt [1] (setting [3]) is 67%. The inhibition of growth at 1 ppm in the assay with Ggt [1] (setting [4]) is 98%. In addition, in the assay on Ggt [1] (setting [5]), the inhibition of growth at 10 ppm came out at 100%.
Take `CCCNC(=O)/C(=N\NC(C)(C)C)c1ccccc1` [Example 3]: the inhibition of growth at 0.1 ppm with Ggt [1] (setting [3]) turned out to be 19%. The inhibition of growth at 1 ppm in the assay on Ggt [1] (setting [4]) was found to be 89%. For the same compound, the inhibition of growth at 10 ppm with Ggt [1] (setting [5]) was 97%. The “% Control of Ggt In Vivo” value is listed as 21% in the assay on Ggt [2] (setting [7]) and 0% in the assay on Ggt [2] (setting [8]).
For `C=CCNC(=O)c1c([Si](C)(C)C)sc(C)c1C` [Standard, reference compound], in the assay with Ggt [1], the inhibition of growth at 0.01 ppm stood at 100%, the inhibition of growth at 0.1 ppm is 100%, the inhibition of growth at 1 ppm was found to be 100% and the inhibition of growth at 10 ppm is 100%. Besides, in the assay with Ggt [2] (25, roots rated after 4 weeks), the “% Control of Ggt In Vivo” value was 90%. In addition, the “% Control of Ggt In Vivo” value with Ggt [2] (100, roots rated after 4 weeks) came to 93%.
For the compound `CCCNC(=O)C(=NOC(C)(C)C)c1ccco1` [Example 16], the inhibition of growth at 0.1 ppm in the assay on Ggt [1] (setting [3]) came to 24%. Further, the inhibition of growth at 1 ppm in the assay with Ggt [1] (setting [4]) turned out to be 51%. In the assay on Ggt [1] (setting [5]), the inhibition of growth at 10 ppm came to 92%.
